In US20260183350A1, “ANTIBIOTIC-RESISTANT BACTERIA” (priority 2022, published 2026):

How the values were obtained:
[1] = tested on: faecal microbiota; test: Faecal batch culture with antibiotics promoting CRE colonisation: 16S rRNA gene sequencing and qPCR; type: cell-based, human; details: 11 healthy donors, antibiotic at faecal concentration, 24 hours anaerobic
Method: (§1) The inventors performed faecal culture experiments to measure the effects of eight broad-spectrum antibiotics on the faecal microbiota collected from 11 healthy human donors. Faecal culture experiments were performed under anaerobic conditions using a complex gut growth medium that was designed to mimic the nutrients found in the human distal gut (McDonald, J. A. et al. Evaluation of microbial community reproducibility, stability and composition in a human distal gut chemostat model. J. Microbiol. Methods 95, 167-174 (2013)). […] Moon, Y. S., Chung, K. C. & Gill, M. A. Pharmacokinetics of meropenem in animals, healthy volunteers, and patients. Clin Infect Dis 24, S249-S255 (1997). Kager, L., Brismar, B., Malmborg, A. S. & Nord, C. E. Imipenem concentrations in colorectal surgery and impact on the colonic microflora. Antimicrob Agents Chemother 33, 204-8 (1989). Pletz, M. et al. Ertapenem pharmacokinetics and impact on intestinal microflora, in comparison to those of ceftriaxone, after multiple dosing in male and female volunteers. Antimicrob Agents Chemother 48, 3765-72 (2004). Nord, C. E., Brismar, B., Kasholm-Tengve, B. & Tunevall, G. Effect of piperacillin/tazobactam treatment on human bowel microflora. J Antimicrob Chemother 31, 61-5 (1993). […] Antimicrob Agents Chemother 63, 2244 (2019). Pessôa de Menezes e Silva, C H. Elaboration and evaluation of a new screening medium for detection and presumptive identification of extended-spectrum beta-lactamase-producing organisms (ESBL). Braz J Microbiol 31, 271-274 (2000). Brismar, B., Edlund, C., Malmborg, A. S. & Nord, C. […] Antimicrob Agents Chemother 34, 481-3 (1990)). Cultures were incubated anaerobically at 37° C. for 24 hours. Samples were analysed by ^1H-NMR spectroscopy (for nutrient and metabolite profiling) and […] rRNA gene sequencing with 16S rRNA gene qPCR (for bacterial composition and biomass) (McDonald, J. A. K. et a/. Inhibiting Growth of Clostridioides difficile by Restoring Valerate, Produced by the Intestinal Microbiota. Gastroenterology 155, 1495-1507 (2018)).

[2] = tested on: faecal microbiota; test: Faecal batch culture with antibiotics promoting CRE colonisation: 1H-NMR of nutrients and metabolites; type: cell-based, human; details: 11 healthy donors, antibiotic at faecal concentration, 24 hours anaerobic
Method: as §1
Supernatants were prepared from faeces by vortexing 300 mg of faeces in 900 μl of HPLC-grade water for 10 minutes at 3000 rpm followed by centrifugation at 17,000×g for 10 minutes at 4° C. Supernatants were prepared from faecal culture samples by centrifugation at 17,000×g for 10 minutes at 4° C. Supernatants were frozen at −80° C. until they were ready for analysis.
^1H-NMR spectroscopy was performed as previously described (McDonald, J. A. K. et al. Inhibiting Growth of Clostridioides difficile by Restoring Valerate, Produced by the Intestinal Microbiota. Gastroenterology 155, 1495-1507 (2018)). Briefly, sample supernatants were randomized and defrosted at room temperature for 1 hour. Sample supernatants were then centrifuged for 10 min at 17 000×g and 4° C. The pellet was discarded and 400 μl of supernatant was added to 250 μl NMR buffer (28.85 g Na2HPO4, 5.25 g NaH2PO4, 1 mM TSP, 3 mM NaN3, deuterium oxide to 1 L, pH 7.4). 600 μl of sample was used to fill each 5 mm NMR tube to be loaded into the SampleJet system.
^1H-NMR spectroscopy was performed using the Bruker AVANCE III HD 800 MHz spectrometer (Bruker Bio-Spin, Rheinstetten, Germany). 1D spectra (a standard NOESYGPPR1D pulse sequence (RD-90°-t1-90°-tm-90°-ACQ)) as well as 2D spectra (standard 2D JRESGPPRQF pulse sequence) were acquired. A recycle delay of 4 seconds and mixing time of 100 ms was used. The 90° pulse length was approximately 10 μs and 32 scans were recorded.
NMR spectra were imported into MATLAB r2019b (The Mathworks, USA) using an in-house script. Spectra were aligned and the water (4.6-5 ppm) and TSP (−0.2-0.2 ppm) peaks were cut. Compounds were identified by comparison to spectral databases in Chenomx NMR Suite (Chenomx, Canada). Representative peaks were integrated for quantification of compounds.

Row | Molecule | Change in abundance of bacterial families relative to antibiotic-naive faecal cultures [1] | Change in butyrate concentration in faecal cultures [2]
1 | CC(C)(O/N=C(\C(=O)N[C@@H]1C(=O)N2C(C(=O)[O-])=C(C[n+]3ccccc3)CS[C@H]12)c1csc(N)n1)C(=O)O [CAZ, ceftazidime] | decreased the abundance of Bifidobacteriaceae | increased
2 | CO/N=C(\C(=O)N[C@@H]1C(=O)N2C(C(=O)O)=C(CSc3nc(=O)c(=O)[nH]n3C)CS[C@H]12)c1csc(N)n1 [CRO, ceftriaxone] | decreased the abundance of Bifidobacteriaceae | decreased
3 | CO/N=C(\C(=O)N[C@@H]1C(=O)N2C(C(=O)O)=C(COC(C)=O)CS[C@H]12)c1csc(N)n1 [CTX, cefotaxime] | decreased the abundance of Bifidobacteriaceae | increased
4 | piperacillin/tazobactam [TZP] | decreased the abundance of Bifidobacteriaceae and Bacteroidaceae | decreased
